Results as given in patent publication US5194611A, “Separation technique for a mixture of (6RS)-diastereoisomers of an ammonium salt of N^5 -methyl-5,6,7,8-tetrahydrofolic acid into single (6R) and (6S)-diastereoisomers” (Sapec S.A. fine chemicals, priority 1990, dated 1993).
Counter-ions that a name gives are not always drawn.

Test system: human CCRF-CEM cells
Test: cells
Settings: 72 h, read-out: % growth (72 hrs exp.)
Method: Inhibition of the growth of human CCRF-CEM cells
Human leukemia cells (CCRF-CEM) were grown during 72 hours in the presence of increasing concentration of (6R)-N^5 -methyl-THF.[…].

SMILES: CN1c2c(nc(N)[nH]c2=O)NC[C@H]1CNc1ccc(C(=O)N[C@@H](CCC(=O)O)C(=O)O)cc1 [(6R)-N^5 -Methyl-THF.Ca^2+, (6R)-N^5 -methyl-THF-calcium salt]
- activity at 1 µM: 95%
- activity at 10 µM: 99%
- activity at 30 µM: 10%
- activity at 100 µM: 9.3%
- activity at 250 µM: 8.2%
